This experiment has as its system Glucokinase known as hexokinase IV (human GK isoform 1, pancreas form and human GK isoform 2, liver form). Kind of experiment: Glucokinase enzymatic activity assay (G6PDH-coupled, NADH absorbance at 340 nm). The experiment is classed as biochemical. The following applies: 5 mM glucose, 1 mM ATP, 37 nM GK, 10 min at room temperature. The method, boiled down:
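His-tagged human GK isoform 1 (pancreas) or 2 (liver), E. coli-expressed and Ni-purified, 37 nM, with 5 mM glucose, 1 mM ATP, 1 mM NAD and G6PDH in 25 mM Hepes/KCl, 2 mM MgCl2, 1 mM DTT. Ran 10 min at room temperature, read as NADH at 340 nm. AC1.5 is the compound concentration giving 1.5-fold activity.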
Regarding `CC(=O)N1CCN(CC[C@@H]2CSC(c3cc4cc(F)cc(NC5CCCC5)c4[nH]3)=N2)CC1` [Example 125, 1-(4-{2-[(R)-2-(7-cyclopentylamino-5-fluoro-1H-indol-2-yl)-4,5-dihydro-thiazol-4-yl]-ethyl}-piperazin-1-yl)-ethanone], the “AC1.5 (the compound concentration at which the enzymatic activity is increased by 1.5 times)” value turned out to be 23 nM.
In the case of `Fc1cc(NC2CCCC2)c2[nH]c(C3=N[C@H](CCN4CCOCC4)CS3)cc2c1` [Example 126, cyclopentyl-{5-fluoro-2-[(R)-4-(2-morpholin-4-yl-ethyl)-4,5-dihydro-thiazol-2-yl]-1H-indol-7-yl}-amine], the “AC1.5 (the compound concentration at which the enzymatic activity is increased by 1.5 times)” value came to 20 nM.
Turning to `CN(C)CC[C@@H]1CSC(c2cc3cc(F)cc(NC4CCCC4)c3[nH]2)=N1` [Example 127, cyclopentyl-{2-[(R)-4-(2-dimethylamino-ethyl)-4,5-dihydro-thiazol-2-yl]-5-fluoro-1H-indol-7-yl}-amine], the “AC1.5 (the compound concentration at which the enzymatic activity is increased by 1.5 times)” value came out at 21 nM.
Consider `Fc1cc(NC2CCCC2)c2[nH]c(C3=N[C@H](CCN4CCCC4)CS3)cc2c1` [Example 128, cyclopentyl-{5-fluoro-2-[(R)-4-(2-pyrrolidin-1-yl-ethyl)-4,5-dihydro-thiazol-2-yl]-1H-indol-7-yl}-amine], for which the “AC1.5 (the compound concentration at which the enzymatic activity is increased by 1.5 times)” value came out at 16 nM.
The result for `O=S1(=O)CCN(CC[C@@H]2CSC(c3cc4cc(F)cc(NC5CCCC5)c4[nH]3)=N2)CC1` [Example 129, cyclopentyl-(2-{(R)-4-[2-(1,1-dioxo-thiomorpholin-4-yl)-ethyl]-4,5-dihydro-thiazol-2-yl}-5-fluoro-1H-indol-7-yl)-amine] reads 67 nM; that for `O=C1CN(CC[C@@H]2CSC(c3cc4cc(F)cc(NC5CCCC5)c4[nH]3)=N2)CCN1` [Example 130, 4-{2-[(R)-2-(7-cyclopentylamino-5-fluoro-1H-indol-2-yl)-4,5-dihydro-thiazol-4-yl]-ethyl}-piperazin-2-one], 14 nM.
The result for `O=C(CO)N1CCN(CC[C@@H]2CSC(c3cc4cc(F)cc(NC5CCCC5)c4[nH]3)=N2)CC1` [Example 131, 1-(4-{2-[(R)-2-(7-cyclopentylamino-5-fluoro-1H-indol-2-yl)-4,5-dihydro-thiazol-4-yl]-ethyl}-piperazin-1-yl)-2-hydroxy-ethanone] reads 10 nM; that for `CS(=O)(=O)CC[C@@H]1CSC(c2cc3cc(F)cc(NC4CCCC4)c3[nH]2)=N1` [Example 132, cyclopentyl-{5-fluoro-2-[(R)-4-(2-methanesulfonyl-ethyl)-4,5-dihydro-thiazol-2-yl]-1H-indol-7-yl}-amine], 13 nM; that for `O=S1(=O)CCN(CC[C@@H]2CSC(c3cc4cc(F)cc(NC5CCOCC5)c4[nH]3)=N2)CC1` [Example 137, (2-{(R)-4-[2-(1,1-dioxo-thiomorpholin-4-yl)-ethyl]-4,5-dihydro-thiazol-2-yl}-5-fluoro-1H-indol-7-yl)-(tetrahydropyran-4-yl)-amine], 23 nM.
As to `CS(=O)(=O)CC[C@@H]1CSC(c2cc3cc(F)cc(NC4CCOCC4)c3[nH]2)=N1` [Example 138, (5-fluoro-2-[(R)-4-(2-methanesulfonyl-ethyl)-4,5-dihydro-thiazol-2-yl]-1H-indol-7-yl)-(tetrahydro-pyran-4-yl)-amine], the “AC1.5 (the compound concentration at which the enzymatic activity is increased by 1.5 times)” value is listed as 36 nM.
Consider `O=C1CN(CC[C@@H]2CSC(c3cc4cc(F)cc(NC5CCOCC5)c4[nH]3)=N2)CCN1` [Example 139, 4-(2-{(R)-2-[5-fluoro-7-(tetrahydro-pyran-4-ylamino)-1H-indol-2-yl]-4,5-dihydro-thiazol-4-yl}-ethyl)-piperazin-2-one], for which the “AC1.5 (the compound concentration at which the enzymatic activity is increased by 1.5 times)” value came out at 38 nM.
Take `O=C(CO)N1CCN(CC[C@@H]2CSC(c3cc4cc(F)cc(NC5CCOCC5)c4[nH]3)=N2)CC1` [Example 140, 1-[4-(2-{(R)-2-[5-fluoro-7-(tetrahydro-pyran-4-ylamino)-1H-indol-2-yl]-4,5-dihydro-thiazol-4-yl}-ethyl)-piperazin-1-yl]-2-hydroxy-ethanone]: the “AC1.5 (the compound concentration at which the enzymatic activity is increased by 1.5 times)” value stood at 52 nM.
With `COCC[C@@H]1CSC(c2cc3cccc(NC4CCCC4)c3[nH]2)=N1` [Example 141, cyclopentyl-{2-[(R)-4-(2-methoxy-ethyl)-4,5-dihydro-thiazol-2-yl]-1H-indol-7-yl}-amine], the “AC1.5 (the compound concentration at which the enzymatic activity is increased by 1.5 times)” value worked out at 24 nM.
Take `CN(C)CC[C@@H]1CSC(c2cc3cccc(NC4CCCC4)c3[nH]2)=N1` [Example 142, cyclopentyl-{2-[(R)-4-(2-dimethylamino-ethyl)-4,5-dihydro-thiazol-2-yl]-1H-indol-7-yl}-amine]: the “AC1.5 (the compound concentration at which the enzymatic activity is increased by 1.5 times)” value was 85 nM.
Regarding `c1cc(NC2CCCC2)c2[nH]c(C3=N[C@H](CCN4CCOCC4)CS3)cc2c1` [Example 143, cyclopentyl-{2-[(R)-4-(2-morpholin-4-yl-ethyl)-4,5-dihydro-thiazol-2-yl]-1H-indol-7-yl}-amine], the “AC1.5 (the compound concentration at which the enzymatic activity is increased by 1.5 times)” value was found to be 37 nM.
The result for `c1cc(NC2CCCC2)c2[nH]c(C3=N[C@H](CCN4CCCCC4)CS3)cc2c1` [Example 144, cyclopentyl-{2-[(R)-4-(2-piperidin-1-yl-ethyl)-4,5-dihydro-thiazol-2-yl]-1H-indol-7-yl}-amine] reads 122 nM; that for `CS(=O)(=O)CC[C@@H]1CSC(c2cc3cccc(NC4CCOCC4)c3[nH]2)=N1` [Example 145, {2-[(R)-4-(2-methanesulfonyl-ethyl)-4,5-dihydro-thiazol-2-yl]-1H-indol-7-yl}-(tetrahydro-pyran-4-yl)-amine], 138 nM; that for `COc1cc(NC2CCCC2)c2[nH]c(C3=N[C@H](CCN4CCN(C(=O)CO)CC4)CS3)cc2c1` [Example 146, 1-(4-{2-[(R)-2-(7-cyclopentylamino-5-methoxy-1H-indol-2-yl)-4,5-dihydro-thiazol-4-yl]-ethyl}-piperazin-1-yl)-2-hydroxy-ethanone], 29 nM.
On to `COc1cc(NC2CCOCC2)c2[nH]c(C3=N[C@H](CCN4CCN(C(=O)CO)CC4)CS3)cc2c1` [Example 147, 2-hydroxy-1-[4-(2-{(R)-2-[5-methoxy-7-(tetrahydro-pyran-4-ylamino)-1H-indol-2-yl]-4,5-dihydro-thiazol-4-yl}-ethyl)-piperazin-1-yl]ethanone], for which the “AC1.5 (the compound concentration at which the enzymatic activity is increased by 1.5 times)” value is 52 nM.
For `CCOC(=O)CC[C@@H]1CSC(c2cc3cc(Cl)cc(NC4CCCC4)c3[nH]2)=N1` [Example 148, 3-[(R)-2-(5-chloro-7-cyclopentylamino-1H-indol-2-yl)-4,5-dihydro-thiazol-4-yl]propionic acid ethyl ester], the “AC1.5 (the compound concentration at which the enzymatic activity is increased by 1.5 times)” value is listed as 12 nM.
The result for `O=C(O)CC[C@@H]1CSC(c2cc3cc(Cl)cc(NC4CCCC4)c3[nH]2)=N1` [Example 149, 3-[(R)-2-(5-chloro-7-cyclopentylamino-1H-indol-2-yl)-4,5-dihydro-thiazol-4-yl]-propionic acid] reads 12 nM.

The record behind these values is patent publication US8309586B2, “Glucokinase activators and pharmaceutical compositions containing the same as an active ingredient” (LG Life Sciences Ltd., priority 2007, dated 2012).
